US20250345390A1, “COMBINATION THERAPIES” (Gilead Sciences, Inc., priority 2024, published 2025)

Tested on: HDV
Test: HBV/HDV co-infected viral spread assay in primary human hepatocytes (PHH)
Format: cell-based, hepatitis D virus (HDV) in primary human hepatocytes
Conditions: primary infection; lonafarnib 5 μM to 6.9 nM for 9 days; BLV 0.8 nM where present
Protocol: Cryopreserved PHH were thawed and cells were recovered by centrifugation at 100×g (Beckman Coulter, Allegra X-14R) through cryopreserved hepatocyte recovery medium (Thermo Fisher Scientific; CM7500) and plated in collagen coated 96-well plates (Thermo Fisher Scientific; CM1096) at a density of 70,000 live cells per well. Cells were plated in William's E medium (Thermo Fisher Scientific; A1217601) supplemented with 3.6% hepatocyte thawing and plating supplement (Thermo Fisher Scientific, A15563), 5% fetal bovine serum (Thermo Fisher Scientific; 16000-036), 1 μM dexamethasone (Thermo Fisher Scientific, A15563), and 0.2% Torpedo antibiotic mix (BioreclamationIVT; Z990008). […]
Vehicle and compound containing wells were normalized such that the final concentration of DMSO was 1.5% (v/v). The medium was collected and extracellular HBsAg was measured by an electrochemiluminescence assay (MSD) according to the manufacturer's instructions (Meso Scale Diagnostics, Rockville, MD). […] Levels of HDV RNA were calculated as fold change relative to DMSO treated sample using the 2-ΔΔCt method (Livak K J, Schmittgen T D. Analysis of relative gene expression data using real-time quantitative PCR and the 2(-Delta Delta C(T)) Method. Methods 2001).

How did the “intracellular HDV RNA (qRT-PCR, fold change relative to DMSO)” value turn out when `NC(=O)N1CCC(CC(=O)N2CCC([C@H]3c4ncc(Br)cc4CCc4cc(Cl)cc(Br)c43)CC2)CC1` [lonafarnib, (R)-4-(2-(4-(3,10-dibromo-8-chloro-6,11-dihydro-5H-benzo[5,6]cyclohepta[1,2-b]pyridin-11-yl)piperidin-1-yl)-2-oxoethyl)piperidine-1-carboxamide] was run?
Its value is “induced dose-dependent intracellular accumulation of HDV RNA”.
